Read-outs that look alike come from different tables or passages of the source.
What was measured:
Test in all cases: biochemical
Set-up in all cases: Eurofins KinaseProfiler full panel at Km ATP, residual kinase activity (%) relative to DMSO
DAPK1(h) = DAPK1(h) (Homo sapiens, UniProt P53355)
In short: (§1)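 Two 10 µM single-concentration screens were run: a competition-binding screen, in which DNA-tagged kinase bound to immobilized ligands was quantified by qPCR, and a radiometric activity panel at Km ATP. Each is expressed as residual kinase activity (%).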

CaMKIγ(h) = biological target: T1, CaMKIγ(h) (Homo sapiens, UniProt Q96NX5)
T1 construct: gene CAMK1G
T1 sequence (Q96NX5 whole entry): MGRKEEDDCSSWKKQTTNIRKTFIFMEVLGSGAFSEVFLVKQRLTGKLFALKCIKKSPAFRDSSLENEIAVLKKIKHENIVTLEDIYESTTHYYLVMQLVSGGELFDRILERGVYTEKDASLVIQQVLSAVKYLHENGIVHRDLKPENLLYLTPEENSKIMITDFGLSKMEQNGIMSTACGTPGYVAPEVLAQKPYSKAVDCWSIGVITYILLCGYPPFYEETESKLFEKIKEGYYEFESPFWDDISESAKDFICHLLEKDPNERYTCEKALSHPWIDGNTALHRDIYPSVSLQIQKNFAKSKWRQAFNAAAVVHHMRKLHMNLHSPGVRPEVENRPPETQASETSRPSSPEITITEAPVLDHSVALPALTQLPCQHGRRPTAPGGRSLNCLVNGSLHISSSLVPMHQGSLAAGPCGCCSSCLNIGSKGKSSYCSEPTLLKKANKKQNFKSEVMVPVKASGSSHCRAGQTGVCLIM
In short: as §1

PI3KC2a(h) = biological target: T2, PI3KC2a(h) (Homo sapiens, UniProt O00443)
T2 construct: gene PIK3C2A
In short: as §1

ALK4(h) = biological target: T3, ALK4(h) (Homo sapiens, UniProt P36896)
T3 construct: gene ACVR1B
T3 sequence (P36896 1-505): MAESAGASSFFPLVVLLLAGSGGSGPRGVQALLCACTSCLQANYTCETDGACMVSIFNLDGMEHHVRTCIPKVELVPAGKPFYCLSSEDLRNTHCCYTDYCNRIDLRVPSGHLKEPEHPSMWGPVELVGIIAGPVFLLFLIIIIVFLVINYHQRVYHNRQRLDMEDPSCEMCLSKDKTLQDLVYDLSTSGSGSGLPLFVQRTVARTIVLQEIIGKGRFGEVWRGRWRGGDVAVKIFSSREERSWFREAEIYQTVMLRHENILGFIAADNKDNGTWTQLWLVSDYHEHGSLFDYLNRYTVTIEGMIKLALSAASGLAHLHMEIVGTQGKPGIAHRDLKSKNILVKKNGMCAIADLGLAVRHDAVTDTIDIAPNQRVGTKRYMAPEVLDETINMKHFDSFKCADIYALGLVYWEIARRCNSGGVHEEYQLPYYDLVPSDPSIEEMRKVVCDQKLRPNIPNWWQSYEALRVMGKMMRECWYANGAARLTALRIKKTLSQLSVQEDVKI
In short: as §1

JNK3(h) = biological target: T4, JNK3(h) (Homo sapiens, UniProt P53779)
T4 construct: gene MAPK10
T4 sequence (P53779 whole entry): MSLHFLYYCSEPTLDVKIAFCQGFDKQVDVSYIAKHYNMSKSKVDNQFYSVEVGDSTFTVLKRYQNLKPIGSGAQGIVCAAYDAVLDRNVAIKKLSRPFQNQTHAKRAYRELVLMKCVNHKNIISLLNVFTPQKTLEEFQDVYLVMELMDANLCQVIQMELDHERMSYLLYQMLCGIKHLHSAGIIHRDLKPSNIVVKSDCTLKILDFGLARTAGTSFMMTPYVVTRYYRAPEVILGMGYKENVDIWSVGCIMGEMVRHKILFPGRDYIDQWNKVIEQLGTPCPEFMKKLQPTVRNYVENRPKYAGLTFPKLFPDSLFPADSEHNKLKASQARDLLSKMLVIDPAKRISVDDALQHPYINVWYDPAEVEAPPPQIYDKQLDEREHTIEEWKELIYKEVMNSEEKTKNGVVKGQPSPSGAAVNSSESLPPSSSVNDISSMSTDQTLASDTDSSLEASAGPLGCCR
In short: as §1

CK2(h) = biological target: T5, CK2(h) (Homo sapiens, UniProt P68400)
T5 construct: gene CSNK2A1
T5 sequence (P68400 whole entry): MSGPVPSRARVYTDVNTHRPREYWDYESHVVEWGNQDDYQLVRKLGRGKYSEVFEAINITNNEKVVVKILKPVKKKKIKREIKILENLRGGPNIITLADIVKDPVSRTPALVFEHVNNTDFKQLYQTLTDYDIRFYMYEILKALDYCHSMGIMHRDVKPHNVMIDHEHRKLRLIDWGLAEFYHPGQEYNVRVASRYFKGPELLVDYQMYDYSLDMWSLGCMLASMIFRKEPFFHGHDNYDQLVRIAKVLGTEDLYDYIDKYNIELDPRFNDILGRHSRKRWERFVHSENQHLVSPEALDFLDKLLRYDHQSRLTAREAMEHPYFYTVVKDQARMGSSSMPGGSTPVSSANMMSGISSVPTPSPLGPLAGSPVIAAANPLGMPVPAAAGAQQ
T5 sequence (P67870 whole entry partner): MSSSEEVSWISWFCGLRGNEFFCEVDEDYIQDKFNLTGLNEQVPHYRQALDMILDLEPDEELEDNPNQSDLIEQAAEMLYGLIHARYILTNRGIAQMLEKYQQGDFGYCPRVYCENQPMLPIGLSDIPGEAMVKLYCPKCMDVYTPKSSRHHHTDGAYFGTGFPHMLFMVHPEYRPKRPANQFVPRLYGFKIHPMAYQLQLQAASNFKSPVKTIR
In short: as §1

DCAMKL3(h) = biological target: T6, DCAMKL3(h) (Homo sapiens, UniProt Q9C098)
T6 construct: gene DCLK3
T6 sequence (Q9C098 1-648): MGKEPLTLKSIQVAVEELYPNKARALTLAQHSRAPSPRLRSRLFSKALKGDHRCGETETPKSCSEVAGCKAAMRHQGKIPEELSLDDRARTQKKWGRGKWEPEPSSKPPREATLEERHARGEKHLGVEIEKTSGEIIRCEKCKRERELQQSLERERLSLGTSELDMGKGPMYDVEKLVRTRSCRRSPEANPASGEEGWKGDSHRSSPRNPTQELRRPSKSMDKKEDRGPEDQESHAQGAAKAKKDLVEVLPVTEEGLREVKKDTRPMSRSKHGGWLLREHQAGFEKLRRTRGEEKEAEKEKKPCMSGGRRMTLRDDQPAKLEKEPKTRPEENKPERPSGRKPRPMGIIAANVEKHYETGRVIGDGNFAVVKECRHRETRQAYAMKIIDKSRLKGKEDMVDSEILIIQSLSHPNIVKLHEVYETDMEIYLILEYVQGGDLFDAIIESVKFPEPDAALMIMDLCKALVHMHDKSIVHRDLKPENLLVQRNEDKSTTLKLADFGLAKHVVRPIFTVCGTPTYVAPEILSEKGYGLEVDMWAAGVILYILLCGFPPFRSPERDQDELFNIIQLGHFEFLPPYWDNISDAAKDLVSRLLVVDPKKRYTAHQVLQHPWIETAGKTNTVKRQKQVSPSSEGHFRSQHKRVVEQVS
In short: as §1

cKit(D816V)(h) = biological target: T7, cKit(D816V)(h) (Homo sapiens, UniProt P10721, D816V)
T7 construct: gene KIT
T7 sequence (P10721 whole entry D816V): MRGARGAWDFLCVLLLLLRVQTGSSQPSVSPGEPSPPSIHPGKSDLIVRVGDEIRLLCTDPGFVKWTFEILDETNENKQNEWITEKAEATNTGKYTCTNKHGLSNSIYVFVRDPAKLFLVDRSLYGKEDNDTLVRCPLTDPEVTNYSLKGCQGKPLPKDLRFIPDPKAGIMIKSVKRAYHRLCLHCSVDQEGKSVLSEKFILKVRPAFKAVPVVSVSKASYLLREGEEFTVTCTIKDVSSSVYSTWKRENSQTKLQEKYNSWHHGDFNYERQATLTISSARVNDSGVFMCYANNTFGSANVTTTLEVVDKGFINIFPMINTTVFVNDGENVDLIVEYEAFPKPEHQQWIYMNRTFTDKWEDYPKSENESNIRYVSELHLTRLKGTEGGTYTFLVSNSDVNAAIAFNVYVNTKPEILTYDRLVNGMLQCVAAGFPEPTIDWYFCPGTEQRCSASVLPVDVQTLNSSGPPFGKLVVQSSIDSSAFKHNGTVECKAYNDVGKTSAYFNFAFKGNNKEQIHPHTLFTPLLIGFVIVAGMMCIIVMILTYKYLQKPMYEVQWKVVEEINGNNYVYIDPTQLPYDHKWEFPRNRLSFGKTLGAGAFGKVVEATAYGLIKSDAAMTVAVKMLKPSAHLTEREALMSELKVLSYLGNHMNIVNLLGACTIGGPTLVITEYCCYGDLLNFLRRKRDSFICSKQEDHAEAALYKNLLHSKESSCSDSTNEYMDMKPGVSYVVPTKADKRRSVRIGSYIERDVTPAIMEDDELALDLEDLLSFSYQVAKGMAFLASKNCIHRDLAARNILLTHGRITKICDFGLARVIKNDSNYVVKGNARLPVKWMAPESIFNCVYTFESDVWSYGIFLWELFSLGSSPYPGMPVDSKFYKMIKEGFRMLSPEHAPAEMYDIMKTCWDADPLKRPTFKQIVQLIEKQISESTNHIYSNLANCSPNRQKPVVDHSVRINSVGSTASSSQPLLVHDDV
In short: as §1

SAPK2a(T106M)(h) = biological target: T8, SAPK2a(T106M)(h) (Homo sapiens, UniProt Q16539, T106M)
T8 construct: gene MAPK14
T8 sequence (Q16539 whole entry T106M): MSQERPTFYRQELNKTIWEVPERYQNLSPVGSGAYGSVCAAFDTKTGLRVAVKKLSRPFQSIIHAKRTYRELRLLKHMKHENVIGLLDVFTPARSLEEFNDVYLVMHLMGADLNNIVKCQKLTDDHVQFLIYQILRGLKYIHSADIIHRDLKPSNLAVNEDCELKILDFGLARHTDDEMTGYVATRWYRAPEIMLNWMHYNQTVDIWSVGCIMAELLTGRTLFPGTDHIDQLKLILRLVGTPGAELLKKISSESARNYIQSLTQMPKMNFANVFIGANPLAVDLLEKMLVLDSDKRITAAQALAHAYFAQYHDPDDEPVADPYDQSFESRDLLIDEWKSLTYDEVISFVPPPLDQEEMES
In short: as §1

[1] = read-out: Residual activity (%) 5ay
[2] = read-out: Residual activity (%) Spautin-1 5aa
[3] = read-out: Residual activity (%) 5at
[4] = read-out: Residual activity (%) 5as

Sequence of DAPK1(h) (P53355 whole entry): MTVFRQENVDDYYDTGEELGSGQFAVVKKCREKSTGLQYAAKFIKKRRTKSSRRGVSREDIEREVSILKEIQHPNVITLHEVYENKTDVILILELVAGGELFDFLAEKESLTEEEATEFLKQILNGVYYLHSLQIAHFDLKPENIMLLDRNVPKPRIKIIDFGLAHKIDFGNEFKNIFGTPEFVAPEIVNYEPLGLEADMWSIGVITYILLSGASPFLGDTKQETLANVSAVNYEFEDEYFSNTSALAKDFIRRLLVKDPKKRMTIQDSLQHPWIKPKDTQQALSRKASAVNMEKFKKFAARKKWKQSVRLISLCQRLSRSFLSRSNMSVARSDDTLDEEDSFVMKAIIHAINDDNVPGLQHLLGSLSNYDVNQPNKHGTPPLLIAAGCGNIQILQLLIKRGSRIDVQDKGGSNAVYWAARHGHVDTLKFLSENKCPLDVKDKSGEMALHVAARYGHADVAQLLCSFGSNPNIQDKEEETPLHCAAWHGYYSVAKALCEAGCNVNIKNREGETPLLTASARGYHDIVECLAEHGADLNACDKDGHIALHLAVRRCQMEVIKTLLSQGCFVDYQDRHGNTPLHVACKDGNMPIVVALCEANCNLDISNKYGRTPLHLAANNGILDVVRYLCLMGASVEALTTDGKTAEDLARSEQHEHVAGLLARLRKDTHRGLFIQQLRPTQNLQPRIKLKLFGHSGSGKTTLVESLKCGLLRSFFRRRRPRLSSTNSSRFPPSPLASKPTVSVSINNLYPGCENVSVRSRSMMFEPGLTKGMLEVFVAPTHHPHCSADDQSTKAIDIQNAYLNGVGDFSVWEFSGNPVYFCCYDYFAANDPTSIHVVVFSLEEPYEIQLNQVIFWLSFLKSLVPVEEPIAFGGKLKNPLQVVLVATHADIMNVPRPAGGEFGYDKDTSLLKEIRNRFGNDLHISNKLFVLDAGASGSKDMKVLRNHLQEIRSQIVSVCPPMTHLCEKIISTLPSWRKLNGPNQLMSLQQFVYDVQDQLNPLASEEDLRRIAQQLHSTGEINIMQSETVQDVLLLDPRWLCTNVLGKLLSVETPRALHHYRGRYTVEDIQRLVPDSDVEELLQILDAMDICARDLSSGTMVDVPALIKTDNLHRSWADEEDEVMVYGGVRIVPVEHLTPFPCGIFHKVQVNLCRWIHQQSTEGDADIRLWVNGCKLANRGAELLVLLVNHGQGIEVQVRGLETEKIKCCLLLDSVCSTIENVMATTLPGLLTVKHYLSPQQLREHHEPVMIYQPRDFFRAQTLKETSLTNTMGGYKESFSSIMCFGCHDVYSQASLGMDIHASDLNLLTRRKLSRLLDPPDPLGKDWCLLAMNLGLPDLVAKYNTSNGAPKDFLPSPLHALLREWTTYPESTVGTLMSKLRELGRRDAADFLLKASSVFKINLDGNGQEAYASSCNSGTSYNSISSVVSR

For `COc1ccc2ncnc(Nc3cccc(F)c3)c2c1` [5ay, N-(3-Fluorophenyl)-6-Methoxy-4-Quinazolinamine], the remaining activity at 10 µM (DAPK1(h); [1]) was 95%, the remaining activity at 10 µM (CaMKIγ(h); [1]) was 94% and the remaining activity at 10 µM (PI3KC2a(h); [1]) was 106%. It also gave a remaining activity at 10 µM (ALK4(h); [1]) of 73%, a remaining activity at 10 µM (JNK3(h); [1]) of 90% and a remaining activity at 10 µM (CK2(h); [1]) of 75%. It also gave a remaining activity at 10 µM (DCAMKL3(h); [1]) of 108%, a remaining activity at 10 µM (cKit(D816V)(h); [1]) of 125% and a remaining activity at 10 µM (SAPK2a(T106M)(h); [1]) of 121%.
For `Fc1ccc(CNc2ncnc3ccc(F)cc23)cc1` [5aa, 6-Fluoro-N-(4-fluorobenzyl)-4-Quinazolinamine], the remaining activity at 10 µM (DAPK1(h); [2]) was 102%, the remaining activity at 10 µM (CaMKIγ(h); [2]) was 95% and the remaining activity at 10 µM (PI3KC2a(h); [2]) was 102%. The remaining activity at 10 µM (ALK4(h); [2]) was 121%, the remaining activity at 10 µM (JNK3(h); [2]) was 90% and the remaining activity at 10 µM (CK2(h); [2]) was 83%. For the same compound, the remaining activity at 10 µM (DCAMKL3(h); [2]) was 102%, the remaining activity at 10 µM (cKit(D816V)(h); [2]) was 105% and the remaining activity at 10 µM (SAPK2a(T106M)(h); [2]) was 95%.
`Fc1ccc2ncnc(NCCc3ccc(Cl)cc3)c2c1` [5at, N-[2-(4-Chlorophenyl)Ethyl]-6-Fluoro-4-Quinazolinamine] was tested, and the remaining activity at 10 µM (DAPK1(h); [3]) was 89%, the remaining activity at 10 µM (CaMKIγ(h); [3]) was 87% and the remaining activity at 10 µM (PI3KC2a(h); [3]) was 105%. The remaining activity at 10 µM (ALK4(h); [3]) was 61%, the remaining activity at 10 µM (JNK3(h); [3]) was 107% and the remaining activity at 10 µM (CK2(h); [3]) was 87%. The remaining activity at 10 µM (DCAMKL3(h); [3]) was 107%, the remaining activity at 10 µM (cKit(D816V)(h); [3]) was 98% and the remaining activity at 10 µM (SAPK2a(T106M)(h); [3]) was 103%.
With `Fc1ccc(CCNc2ncnc3ccc(F)cc23)cc1` [5as, 6-Fluoro-N-[2-(4-Fluorophenyl)Ethyl]-4-Quinazolinamine] the remaining activity at 10 µM (DAPK1(h); [4]) was 90%, the remaining activity at 10 µM (CaMKIγ(h); [4]) was 94% and the remaining activity at 10 µM (PI3KC2a(h); [4]) was 100%. For the same compound, the remaining activity at 10 µM (ALK4(h); [4]) was 84%, the remaining activity at 10 µM (JNK3(h); [4]) was 98% and the remaining activity at 10 µM (CK2(h); [4]) was 78%. For the same compound, the remaining activity at 10 µM (DCAMKL3(h); [4]) was 108%, the remaining activity at 10 µM (cKit(D816V)(h); [4]) was 111% and the remaining activity at 10 µM (SAPK2a(T106M)(h); [4]) was 115%.

Source: PMC7827406, “Structure–Activity Relationship (SAR) Study of Spautin-1 to Entail the Discovery of Novel NEK4 Inhibitors” (International Journal of Molecular Sciences, 2021)
